Reference: the supplement of paper PMC10307832

Legend:
Assay in all cases: relative viability (nuclei count vs DMSO), 5 days (fraction); higher = more cells survive
XMD8-85 + Pictilisib = compound: CN1CCN(CC1)C2=CC(=C(C=C2)NC3=NC=C4C(=N3)N(C5=CC=CC=C5C(=O)N4C)C)OC [XMD8-85] + CS(=O)(=O)N1CCN(Cc2cc3nc(-c4cccc5[nH]ncc45)nc(N4CCOCC4)c3s2)CC1 [Pictilisib] (partner 1 µM)
Outline: (§1)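 Lung cancer cell lines in 1536-well plates were dosed by pin tool the day after seeding, either with one drug alone or with a fixed anchor-drug dose plus five library-drug doses (not always all listed) in √10 steps. After 5 days, cells were fixed and their nuclei stained in one step (final 0.05% Triton X-100, 1% formaldehyde, 1 ug/ml Hoechst), then counted on 4× images. Relative viability is the nuclei count in treated wells divided by that in vehicle wells. Values are medians of duplicate plates.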

4EGI-1 + Phenformin = compound: O=C(O)C(Cc1ccccc1[N+](=O)[O-])=NNc1nc(-c2ccc(Cl)c(Cl)c2)cs1 (mixture of isomers) [4EGI-1] + N=C(N)NC(=N)NCCc1ccccc1 [Phenformin] (partner 250 µM)
Outline: as §1

XMD8-85 + AZD7762 = compound: CN1CCN(CC1)C2=CC(=C(C=C2)NC3=NC=C4C(=N3)N(C5=CC=CC=C5C(=O)N4C)C)OC [XMD8-85] + NC(=O)Nc1cc(-c2cccc(F)c2)sc1C(=O)N[C@H]1CCCNC1 [AZD7762] (partner 0.2 µM)
Outline: as §1

XMD8-85 + Trametinib = compound: CN1CCN(CC1)C2=CC(=C(C=C2)NC3=NC=C4C(=N3)N(C5=CC=CC=C5C(=O)N4C)C)OC [XMD8-85] + CC(=O)Nc1cccc(-n2c(=O)n(C3CC3)c(=O)c3c(Nc4ccc(I)cc4F)n(C)c(=O)c(C)c32)c1 [Trametinib] (partner 0.02 µM)
Outline: as §1

Cell Line | relative viability (XMD8-85 + Pictilisib; first compound 0.08 µM) | relative viability (XMD8-85 + Pictilisib; first compound 0.253 µM) | relative viability (XMD8-85 + Pictilisib; first compound 0.8 µM) | relative viability (XMD8-85 + Pictilisib; first compound 2.53 µM) | relative viability (XMD8-85 + Pictilisib; first compound 8 µM) | relative viability (4EGI-1 + Phenformin; first compound 0.5 µM) | relative viability (4EGI-1 + Phenformin; first compound 5 µM) | relative viability (4EGI-1 + Phenformin; first compound 15.81 µM) | relative viability (4EGI-1 + Phenformin; first compound 50 µM) | relative viability (XMD8-85 + AZD7762; first compound 0.08 µM) | relative viability (XMD8-85 + AZD7762; first compound 0.253 µM) | relative viability (XMD8-85 + AZD7762; first compound 0.8 µM) | relative viability (XMD8-85 + AZD7762; first compound 2.53 µM) | relative viability (XMD8-85 + AZD7762; first compound 8 µM) | relative viability (XMD8-85 + Trametinib; first compound 0.08 µM) | relative viability (XMD8-85 + Trametinib; first compound 0.253 µM) | relative viability (XMD8-85 + Trametinib; first compound 0.8 µM) | relative viability (XMD8-85 + Trametinib; first compound 2.53 µM) | relative viability (XMD8-85 + Trametinib; first compound 8 µM) | relative viability (4EGI-1 + Phenformin; first compound 1.581 µM)
LC-2-ad | 0.433 | 0.497 | 0.543 | 0.483 | 0.276 | 0.601 | 0.649 | 0.342 | 0.265 | 0.808 | 0.837 | 0.895 | 0.779 | 0.596 | 0.93 | 0.914 | 0.955 | 0.997 | 0.458 | –
LCLC-97TM1 | 0.181 | 0.22 | 0.248 | 0.173 | 0.177 | 0.456 | 0.437 | 0.404 | 0.375 | 0.207 | 0.171 | 0.304 | 0.286 | 0.293 | 0.178 | 0.174 | 0.218 | 0.153 | 0.116 | 0.343
LCLC-103H | 0.606 | 0.615 | 0.66 | 0.598 | 0.462 | 0.337 | 0.34 | 0.354 | 0.287 | 0.769 | 0.825 | 0.811 | 0.851 | 0.781 | 0.728 | 0.637 | 0.683 | 0.676 | 0.522 | 0.349
LK-2 | 0.531 | 0.439 | 0.574 | 0.361 | 0.458 | 0.464 | 0.639 | 0.437 | 0.0912 | 0.288 | 0.334 | 0.322 | 0.254 | 0.284 | 0.858 | 0.611 | 0.538 | 0.448 | 0.312 | –
LOU-NH91 | 0.52 | 0.566 | 0.526 | 0.516 | 0.471 | 0.742 | 0.703 | 0.456 | 0.534 | 0.678 | 0.763 | 0.806 | 0.835 | 0.59 | 0.792 | 0.807 | 0.755 | 0.785 | 0.621 | –
LU99A | 0.32 | 0.302 | 0.339 | 0.367 | 0.33 | 1.03 | 0.924 | 0.885 | 0.391 | 0.328 | 0.504 | 0.407 | 0.378 | 0.341 | 0.51 | 0.538 | 0.55 | 0.53 | 0.433 | 0.595
LXF-289 | 0.682 | – | 0.82 | 0.874 | 0.781 | 0.535 | 0.513 | 0.485 | 0.291 | 1.09 | 1.16 | 1.16 | 1.12 | 0.995 | 0.658 | 0.646 | 0.696 | 0.728 | 0.656 | 0.514
NCI-H23 | 0.486 | 0.508 | 0.524 | 0.523 | 0.426 | 0.884 | 0.763 | 0.826 | 0.706 | 0.173 | 0.287 | 0.23 | 0.18 | 0.2 | 0.419 | 0.402 | 0.369 | 0.28 | 0.24 | –
